# Source: US20070288217A1, “Method for Standardization of Chemical and Therapeutic Values of Foods and Medicines Using Animated Chromatographic Fingerprinting” (priority 2004, published 2007)
# Entries after “also recorded” stand apart in the source; their conditions may differ.
# Experiment: Chromatographic fingerprinting (HPLC-PDA contour and 3-D chromatograms) with interpretation of chemical and therapeutic properties by polarity and conjugation zones
# Conditions: for Change of the molecules with time in the media (fingerprints at different time intervals): different time intervals under chemical conditions
structure (smiles),measurement,setting,value
Cc1ccc(-c2cc(C(F)(F)F)nn2-c2ccc(S(N)(=O)=O)cc2)cc1 [Celebocoxib],Action compared to the other medicines of the same group,,different in action
O=C(/C=C/c1ccc(O)c(O)c1)O[C@@H]1C[C@](O)(C(=O)O)C[C@@H](O)[C@H]1O [Chlorogenic acid],Change of the molecules with time in the media (fingerprints at different time intervals),,under go changes
CC(C)=CCC/C(C)=C/C=C/C(C)=C/C=C/C(C)=C/C=C/C=C(C)/C=C/C=C(C)/C=C/C=C(\C)CCC=C(C)C [Lycopine],Therapeutic property / site of action interpreted from the fingerprint,,shrothoshodhaka property; also recorded: stress reliever
same,Change of the molecules with time in the media (fingerprints at different time intervals),,under go changes; also recorded: slowly diminished with time
CC12CC3CC(C)(C1)CC(N)(C3)C2 [Mamentane],"Effect when consumed excessively, interpreted from the fingerprint",excessive use,effect on Maha srothas
COc1ccc2[nH]c([S+]([O-])Cc3ncc(C)c(OC)c3C)nc2c1 (stereo not shown) [Onmeprazole],Therapeutic property interpreted from the fingerprint,simulated acidic condition,Ropaneeya property
same,Therapeutic property interpreted from the fingerprint,the other prakrithi,has not acted so
